Measurements taken from patent EP0683787B1, “4'-O-SULFONYL-ANTHRACYCLINE DERIVATIVES” (PHARMACIA & UPJOHN S.p.A., priority 1993, dated 1995).
Converted amounts (≈) assume the structure as drawn.

Assays:
[1] = tested on: P388 murine leukaemia resistant to doxorubicin; test: Antitumor activity in vivo on P388/DX leukaemia; design: species or system BD2F1 mice; conditions: for T/C: Median survival time of treated mice/Median survival time of controls x 100, at Optimal Dose, i.v. one day after tumor transplantation; for O.D. (Optimal Dose): injected i.v. one day after tumor transplantation, 10^5 cell/mouse transplanted i.v.
[2] = tested on: LoVo (colon adenocarcinoma); test: Colony assay, cytotoxic activity on LoVo cells; type: cell-based; conditions: Homo sapiens, Colony assay: 4 h treatment, concentration inhibiting 50% colony formation
Excerpt: (§1) The cytotoxic activity is reported as IC50, the concentration inhibiting 50% of colony formation, calculated on concentration response curves. Resistance index R.I. is the ratio between the IC50 on resistant cells and the IC50 on sensitive cells.

[3] = tested on: LoVo/DX (colon adenocarcinoma resistant to doxorubicin); test: Colony assay, cytotoxic activity on LoVo/DX cells; type: cell-based, human; conditions: for R.I. (Resistance Index): (IC50 Lovo/DX)/(IC50 LoVo); for IC50: Homo sapiens, LoVo/DX, Colony assay: 4 h treatment, concentration inhibiting 50% colony formation
Excerpt: as §1

SMILES	T/C [1] [%]	O.D. (Optimal Dose) [1] [mg/kg]	IC50 [2] [µg/mL]	R.I. (Resistance Index) [3]	IC50 [3] [µg/mL]
CC(=O)[C@]1(O)Cc2c(O)c3c(c(O)c2[C@@H](O[C@H]2C[C@H](N)[C@H](OS(C)(=O)=O)[C@H](C)O2)C1)C(=O)c1ccccc1C3=O [Compound 1b, 4-demethoxy-4'-O-methansulfonyldaunorubicin]	133	8.1	0.0105 (≈ 0.0182 µM)	5.8	0.0605 (≈ 0.105 µM)
COc1cccc2c1C(=O)c1c(O)c3c(c(O)c1C2=O)C[C@@](O)(C(=O)CO)C[C@@H]3O[C@H]1C[C@H](N)[C@H](OS(C)(=O)=O)[C@H](C)O1 [Compound 2a, 4'-O-methansulfonyldoxorubicin]	137	40.0	0.0173 (≈ 0.0278 µM)	104.0	1.8 (≈ 2.9 µM)
COc1cccc2c1C(=O)c1c(O)c3c(c(O)c1C2=O)C[C@@](O)(C(=O)CO)C[C@@H]3O[C@H]1C[C@H](N)[C@H](O)[C@H](C)O1 [doxorubicin, reference compound]	–	16.9	0.049 (≈ 0.0902 µM)	–	2.55 (≈ 4.7 µM)
